As a reminder, the T/C is the ratio of treated to control.

Type in all cases: functional
The test system of experiment [1] is NCI-H446. In words: Antitumor activity against human NCI-H446 cells xenografted with BALB/c mouse assessed as tumor growth inhibition at 50 mg/kg,po administrated once daily for 21 days relative to control. To be noted: NCI-H446, 504 h, time 21 day, read-out: TGI. A general note: A xenograft is tissue or cells of one species grown in another, often human tumour cells in immunodeficient mice.

Experiment [2] relates to HCT-116. In words: Antitumor activity against human HCT-116 cells xenografted with BALB/c mouse assessed as tumor growth inhibition at 100 mg/kg,po administrated once daily for 21 days relative to control. The conditions noted are these: HCT-116, 504 h, time 21 day, read-out: TGI.
Experiment [3] has as its system HCT-116. As to the kind of experiment: Antitumor activity against human HCT-116 cells xenografted with BALB/c mouse assessed as tumor growth inhibition at 50 mg/kg,po administrated once daily for 21 days relative to control. The conditions noted are these: HCT-116, 504 h, time 21 day, read-out: TGI.
Experiment [4] deals with NCI-H446. As to the kind of experiment: Antitumor activity against human NCI-H446 cells xenografted with BALB/c mouse assessed as tumor growth inhibition by measuring T/C ratio at 100 mg/kg,po administrated once daily for 21 days. To be noted: time 21 day.
In experiment [5] the test system is NCI-H446. As to the kind of experiment: Antitumor activity against human NCI-H446 cells xenografted with BALB/c mouse assessed as tumor growth inhibition by measuring T/C ratio at 50 mg/kg,po administrated once daily for 21 days. To be noted: time 21 day.

In the case of `CN(C)CCCn1c2cc3c(cc2c2ncc4ccccc4c21)OCO3`, the inhibition in vivo at 50 mg/kg in the experiment with NCI-H446 [1] was determined as 49.2%; in the experiment on HCT-116 [3], 40.8%. Further, the inhibition in vivo at 100 mg/kg with HCT-116 [2] was 77.4%. Besides, the T/C with NCI-H446 [4] amounted to 35.2%; with NCI-H446 [5], 52.3%.
